One assay has as its target T1, AChE (Electrophorus electricus, UniProt O42275).
T1 construct: AChE activity isolated from electric eel (purchased); purchased; host or cells: isolated from electric eel
The experiment in a line: biochemical. Conditions: electric eel AChE, acetylthiocholine iodide/DTNB, 412 nm, mean ± SD.

A short description of assay [1]: Cupric ion reducing assay (CUPRAC). Particulars: 0.2 mg/mL; mean ± SD, n = 3. The protocol:
The reduction capacity for cupric ions (Cu^2+) was determined by Cupric Ions Reducing Assay (CUPRAC) assay as previously described[47]^,[48]. A volume of 0.25 ml neocuproine (7.5 mM) in ethanol, 0.25 ml NH4Ac (1 M) and 0.25 ml CuCl2 (0.01 M) was mixed with sample at different amounts and standards.

For a further assay, the target named is hCA II (Homo sapiens, UniProt P00918). The experiment in a line: hCA II esterase activity inhibition (p-nitrophenylacetate). It counts as biochemical. Conditions: for Ki: esterase activity, p-nitrophenylacetate substrate, Lineweaver-Burk, mean ± SD; for Selectivity index KI (hCA II/hCA I): ratio of KI values.
A further assay has as its target hCA I (Homo sapiens, UniProt P00915). The experiment in a line: biochemical. Conditions: esterase activity, p-nitrophenylacetate substrate, Lineweaver-Burk, mean ± SD.
Assay [2] in a line: Fe3+ reducing power (FRAP, modified Oyaizu method). Particulars: 0.2 mg/mL; 700 nm; mean ± SD, n = 3. The protocol:
The power by metal-reducing of novel synthesised sulphonamide derivatives were determined by modified Oyaizu method[45]^,[46]. Different amounts of derivatives in 1 ml of ethanol were mixed with 0.5 ml of phosphate buffer (0.2 M, pH 6.6) and 0.5 ml of 1% potassium ferricyanide (K3Fe(CN)6). After the mixtures were incubated at 50 °C for 20 min, trichloroacetic acid (0.5 ml, 10%) was added to each mixture and centrifuged (at 1,008 G for 10 min.). The upper layers of the resulting solutions (0.5 ml) were first mixed with distilled water (0.5 ml) and then FeCl3 (0.1 ml, 0.1%) in the given order. absorbances were measured at 700 nm.

The nature of assay [3]: ABTS radical cation scavenging activity. Particulars: 0.2 mg/mL; mean ± SD, n = 3. Here is the method:
(§1) ABTS^•+ scavenging activity assay was performed according to Re method[51]^,[52]. The process of ABTS^•+ (2.0 mM) in water with potassium persulfate (K2S2O8) (2.45 mM) at room temperature in dark for 4 h. gave the ABTS cation radical. Dilution of ABTS^•+ was applied with sodium phosphate buffer (Na3PO4) (0.1 mol/l, pH 7.4) to measure the absorbance at 734 nm. The reactions of ABTS^•+ solution (1.0 ml) with samples solution in ethanol at different concentrations were performed. The inhibition was calculated at 734 nm for each concentration. The DPPH^• and ABTS^•+ free radical scavenging ability was calculated as the following equation: Radical scavenging activity (%) = [(Ac – As)/Ac] × 100. Where, Ac is the absorbance value of DPPH^• and ABTS^•+ before sample addition, while as is the absorbance value after sample addition.

A short description of assay [4]: DPPH free radical scavenging activity. Conditions: 0.05 mg/mL; mean ± SD, n = 3. Here is the method: The free radical scavenging activity of standard antioxidants and synthesised sulphonamide derivatives was measured by DPPH using the Blois method[49]^,[50] 0.1 mM solution of DPPH^• in ethanol was prepared and 1 ml of this solution was added to 3 ml of the samples solution in ethanol at different concentrations. These solutions were vortexed thoroughly and kept in the darkness for 30 min. The absorbance values of this final mixture were measured at 517 nm. The reduced absorbance of the reaction mixture indicates higher free radical scavenging activity.
as §1
A general note: The DPPH test is a chemical assay of radical scavenging.

Several values for one entry are separate records, joined by “and”; a condition that tells them apart may be missing. Identical values can stand only once. Like-named read-outs stand apart in the source and are kept apart here.

Sequence of hCA I (P00915 whole entry): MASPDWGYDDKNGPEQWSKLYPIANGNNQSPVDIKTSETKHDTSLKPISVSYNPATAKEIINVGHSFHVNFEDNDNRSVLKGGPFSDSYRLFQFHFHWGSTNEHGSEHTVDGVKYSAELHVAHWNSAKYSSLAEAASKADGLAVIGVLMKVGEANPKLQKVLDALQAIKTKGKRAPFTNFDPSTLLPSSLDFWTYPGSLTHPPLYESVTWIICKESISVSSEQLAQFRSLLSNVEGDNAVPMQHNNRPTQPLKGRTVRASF
T1 sequence (O42275 24-633): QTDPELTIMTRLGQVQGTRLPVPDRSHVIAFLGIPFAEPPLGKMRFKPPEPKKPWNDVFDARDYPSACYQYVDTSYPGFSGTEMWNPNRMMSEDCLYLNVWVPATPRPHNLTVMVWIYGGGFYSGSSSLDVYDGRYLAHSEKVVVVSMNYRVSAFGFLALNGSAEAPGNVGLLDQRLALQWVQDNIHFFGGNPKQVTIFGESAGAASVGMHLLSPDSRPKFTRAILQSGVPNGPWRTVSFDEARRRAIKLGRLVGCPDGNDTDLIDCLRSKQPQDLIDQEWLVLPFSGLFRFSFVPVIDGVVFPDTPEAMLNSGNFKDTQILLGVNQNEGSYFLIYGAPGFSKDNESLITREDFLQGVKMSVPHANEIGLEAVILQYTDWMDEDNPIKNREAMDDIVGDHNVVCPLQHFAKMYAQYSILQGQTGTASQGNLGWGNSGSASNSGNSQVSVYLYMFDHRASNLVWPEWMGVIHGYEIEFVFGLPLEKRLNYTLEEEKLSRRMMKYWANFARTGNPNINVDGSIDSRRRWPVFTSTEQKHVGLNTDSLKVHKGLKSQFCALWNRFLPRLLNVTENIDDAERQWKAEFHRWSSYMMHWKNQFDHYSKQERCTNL
Experimental for AChE: AChE activity isolated from electric eel (purchased) was performed by a modified version of the Ellman method[63]. The measurement of AChE activity was performed using Acetylthiocholine (ATChI) iodide as the substrates and 5,5-Dithiobis(2-nitrobenzoic) acid (DTNB)[64]. The ATChI iodide as the substrates was monitored spectrophotometrically at 412 nm as in our previous assays[65]^,[66].

Broadly, the Ki is the dissociation constant of the complex between target and ligand, obtained from inhibition or displacement. For the compound `NS(=O)(=O)c1ccc(NCc2cccc(Cl)c2O)cc1` [Compound 8, 4-((3-Chloro-2-hydroxybenzyl)amino)benzenesulfonamide], the Ki on AChE (KI AChE) was 31.4 ± 1.2 nM; at hCA II (read-out: KI hCA II), 62 nM and 61.9 nM; on hCA I (KI hCA I), 32.1 nM. Moreover, in assay [1], the “Cu2+ reducing ability” value was found to be 0.80 ± 0.05 absorbance. For the same compound, on hCA II, the “Selectivity index KI (hCA II/hCA I)” value was found to be 1.93. In addition, the “Fe3+ reducing ability” value in assay [2] came to 0.33 ± 0.07 absorbance. Besides, the “ABTS radical scavenging activity” value in assay [3] is reported as 78.4 ± 7.7%. Moreover, in assay [4], the “DPPH radical scavenging activity” value came out at 3.2 ± 0.6%.
For `NS(=O)(=O)c1cccc(NCc2cccc(Cl)c2O)c1` [Compound 6, 3-((3-Chloro-2-hydroxybenzyl)amino)benzenesulfonamide], the Ki at AChE (read-out: KI AChE) is 25.7 ± 1 nM; at hCA II (read-out: KI hCA II), 29.1 ± 0.3 nM; on hCA I (read-out: KI hCA I), 101 ± 1.9 nM. Further, the “Cu2+ reducing ability” value in assay [1] is 0.93 ± 0.07 absorbance. Also, the “Selectivity index KI (hCA II/hCA I)” value at hCA II is recorded as 0.29. The “Fe3+ reducing ability” value in assay [2] was determined as 0.47 ± 0.06 absorbance. Besides, the “ABTS radical scavenging activity” value in assay [3] is 77.7 ± 7.9%. Further, the “DPPH radical scavenging activity” value in assay [4] is reported as 9.2 ± 0.6%.
As to `Cc1c(C)c2c(c(C)c1O)CCC(C)(C(=O)O)O2` (stereo not shown) [Trolox, reference compound], the “Cu2+ reducing ability” value in assay [1] is recorded as 1.81 ± 0.05 absorbance. Moreover, in assay [2], the “Fe3+ reducing ability” value is 1.27 ± 0.12 absorbance. Moreover, the “ABTS radical scavenging activity” value in assay [3] was found to be 94.4 ± 9.0%. The “DPPH radical scavenging activity” value in assay [4] was found to be 57.8 ± 6.8%.
On to `NS(=O)(=O)c1ccc(N=Cc2cccc(Cl)c2O)cc1` [Compound 4, 4-((3-Chloro-2-hydroxybenzylidene)amino)benzenesulfonamide], for which the Ki was 27.9 ± 1.3 nM on AChE (read-out: KI AChE), 79.3 ± 0.2 nM at hCA II (read-out: KI hCA II) and 40.1 ± 0.6 nM on hCA I (read-out: KI hCA I). In assay [1], the “Cu2+ reducing ability” value is reported as 0.24 ± 0.05 absorbance. In addition, the “Selectivity index KI (hCA II/hCA I)” value at hCA II is 1.98. Further, in assay [2], the “Fe3+ reducing ability” value was determined as 0.33 ± 0.02 absorbance. Further, the “ABTS radical scavenging activity” value in assay [3] is 14.7 ± 0.9%. Also, the “DPPH radical scavenging activity” value in assay [4] is recorded as 12.7 ± 0.9%.
Take `NS(=O)(=O)c1ccc(NCc2cccc(Br)c2O)cc1` [Compound 7, 4-((3-Bromo-2-hydroxybenzyl)amino)benzenesulfonamide]: the Ki is 77 ± 9.3 nM at AChE (KI AChE), 10.1 nM on hCA II (KI hCA II) and 62.3 nM at hCA I (read-out: KI hCA I). Moreover, in assay [1], the “Cu2+ reducing ability” value came to 1.15 ± 0.08 absorbance. Further, the “Selectivity index KI (hCA II/hCA I)” value at hCA II was determined as 0.16. Also, in assay [2], the “Fe3+ reducing ability” value was 0.39 ± 0.04 absorbance. Moreover, in assay [3], the “ABTS radical scavenging activity” value turned out to be 74.5 ± 6.4%. In addition, the “DPPH radical scavenging activity” value in assay [4] is 4.2 ± 0.4%.
For `NS(=O)(=O)c1cccc(NCc2cccc(Br)c2O)c1` [Compound 5, 3-((3-Bromo-2-hydroxybenzyl)amino)benzenesulfonamide], the inhibition constant Ki is 61.2 ± 4 nM at AChE (read-out: KI AChE), 19.8 ± 1.2 nM at hCA II (read-out: KI hCA II) and 52.1 ± 0.7 nM at hCA I (read-out: KI hCA I). Also, the “Cu2+ reducing ability” value in assay [1] was found to be 0.99 ± 0.07 absorbance. In addition, at hCA II, the “Selectivity index KI (hCA II/hCA I)” value is reported as 0.38. Moreover, the “Fe3+ reducing ability” value in assay [2] is listed as 0.33 ± 0.03 absorbance. Besides, in assay [3], the “ABTS radical scavenging activity” value is reported as 76.8 ± 8.1%. The “DPPH radical scavenging activity” value in assay [4] is reported as 1.9 ± 0.09%.
Consider `COc1ccc(O)c(C(C)(C)C)c1` [BHA, butylated hydroxyanisole, reference compound], for which the “Cu2+ reducing ability” value in assay [1] came to 2.28 ± 0.13 absorbance. Also, the “Fe3+ reducing ability” value in assay [2] worked out at 1.23 ± 0.20 absorbance. Besides, in assay [3], the “ABTS radical scavenging activity” value amounted to 79.5 ± 6.1%. Moreover, the “DPPH radical scavenging activity” value in assay [4] came out at 21.7 ± 1.9%.
Turning to `NS(=O)(=O)c1cccc(N=Cc2cccc(Cl)c2O)c1` [Compound 2, 3-((3-Chloro-2-hydroxybenzylidene)amino)benzenesulfonamide], the Ki on AChE (read-out: KI AChE) was 21 nM; at hCA II (read-out: KI hCA II), 13.8 ± 0.1 nM; at hCA I (read-out: KI hCA I), 66.6 nM and 66.5 nM. Further, the “Cu2+ reducing ability” value in assay [1] is reported as 0.26 ± 0.04 absorbance. Also, on hCA II, the “Selectivity index KI (hCA II/hCA I)” value came to 0.21. Also, the “Fe3+ reducing ability” value in assay [2] came out at 0.27 ± 0.02 absorbance. Also, the “ABTS radical scavenging activity” value in assay [3] worked out at 15.1 ± 1.4%. Moreover, in assay [4], the “DPPH radical scavenging activity” value is given as 8.2 ± 0.4%.
As for `Cc1cc(C(C)(C)C)c(O)c(C(C)(C)C)c1` [BHT, butylated hydroxytoluene, reference compound], in assay [1], the “Cu2+ reducing ability” value came out at 2.00 ± 0.11 absorbance. Also, the “Fe3+ reducing ability” value in assay [2] is listed as 0.67 ± 0.01 absorbance. In assay [3], the “ABTS radical scavenging activity” value was 98.9 ± 9.1%. Also, the “DPPH radical scavenging activity” value in assay [4] came to 47.0 ± 5.2%.
On to `NS(=O)(=O)c1ccc(N=Cc2cccc(Br)c2O)cc1` [Compound 3, 4-((3-Bromo-2-hydroxybenzylidene)amino)benzenesulfonamide], for which the inhibition constant Ki was 34.9 ± 1.4 nM at AChE (read-out: KI AChE), 26.3 ± 0.09 nM on hCA II (read-out: KI hCA II) and 80.5 ± 1.5 nM on hCA I (read-out: KI hCA I). In assay [1], the “Cu2+ reducing ability” value came out at 0.28 ± 0.04 absorbance. Moreover, the “Selectivity index KI (hCA II/hCA I)” value at hCA II was determined as 0.33. In assay [2], the “Fe3+ reducing ability” value stood at 0.11 ± 0.01 absorbance. Also, in assay [3], the “ABTS radical scavenging activity” value turned out to be 7.3 ± 0.6%. Also, the “DPPH radical scavenging activity” value in assay [4] is reported as 5.9 ± 0.4%.
On to `NS(=O)(=O)c1cccc(N=Cc2cccc(Br)c2O)c1` [Compound 1, 3-((3-Bromo-2-hydroxybenzylidene)amino)benzenesulfonamide], for which the Ki on AChE (read-out: KI AChE) stood at 24.3 ± 1 nM; at hCA II (read-out: KI hCA II) it was 16.4 ± 0.7 nM; on hCA I (read-out: KI hCA I), 59.7 ± 0.1 nM. Moreover, the “Cu2+ reducing ability” value in assay [1] was determined as 0.22 ± 0.02 absorbance. Besides, at hCA II, the “Selectivity index KI (hCA II/hCA I)” value was found to be 0.27. Moreover, in assay [2], the “Fe3+ reducing ability” value was 0.15 ± 0.03 absorbance. Moreover, the “ABTS radical scavenging activity” value in assay [3] was 18.4 ± 2.0%. Besides, the “DPPH radical scavenging activity” value in assay [4] is listed as 18.7 ± 1.5%.

For the origin of these results see PMC7170330 (Journal of Enzyme Inhibition and Medicinal Chemistry, 2020).
